The text below walks through data of PubChem BioAssay (NCI).

Among the test systems are HOP-62 NSCLC; SK-MEL-28 melanoma; UO-31 renal; BT-549 breast; T-47D breast; NCI-H23 lung; PC-3 prostate; EKVX NSCLC.
Common to all, as to experiment: inhibition of tumour cell growth, NCI panel, 48 h

Structures are written as SMILES.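 Method: 48-hour compound exposure of cells in 96-well plates, five concentrations, linear interpolation of endpoints. GI50 = concentration required for 50% inhibition of growth. Definition used: TGI = concentration required for complete inhibition of growth.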

For the compound `Cn1ccnc1C(=O)/C=C/c1ccc(CC(=O)Nc2ccc(S(F)(F)(F)(F)F)cc2)cc1`, the GI50 with HOP-62 NSCLC was 2.58 µM; in the experiment with SK-MEL-28 melanoma, 2.83 µM; in the experiment on UO-31 renal it was 2.22 µM; in the experiment on BT-549 breast, 2.5 µM; in the experiment with T-47D breast, 3.1 µM; in the experiment on NCI-H23 lung, 2.37 µM. Moreover, the GI50 with PC-3 prostate is 0.534 µM; in the experiment on EKVX NSCLC, 2.84 µM. For the same compound, the TGI is 6.18 µM in the experiment with HOP-62 NSCLC; 5.88 µM with SK-MEL-28 melanoma; 4.35 µM in the experiment on UO-31 renal; 5.29 µM in the experiment with BT-549 breast; 10.4 µM in the experiment on T-47D breast; 4.82 µM with NCI-H23 lung. In addition, the TGI in the experiment on PC-3 prostate was 2.03 µM; in the experiment with EKVX NSCLC, 8.23 µM.

Regarding `COC(=O)c1cc(-c2cc(OC)c(OC)c(OC)c2)[nH]c1N/N=C/c1c(Cl)cccc1Cl`, the GI50 was 2.1 µM in the experiment on HOP-62 NSCLC; 2.8 µM in the experiment on SK-MEL-28 melanoma; 0.837 µM with UO-31 renal; 2.74 µM in the experiment with BT-549 breast; 1.92 µM in the experiment on T-47D breast; 1.25 µM with NCI-H23 lung. Moreover, the GI50 in the experiment with PC-3 prostate is 0.893 µM; in the experiment with EKVX NSCLC it was 8.72 µM. In addition, the TGI was 13 µM in the experiment with HOP-62 NSCLC; 12.4 µM in the experiment on SK-MEL-28 melanoma; 4.51 µM in the experiment with UO-31 renal; 16.3 µM in the experiment on BT-549 breast; 6.29 µM with T-47D breast; 7.78 µM with NCI-H23 lung. The same compound came in with a TGI in the experiment on EKVX NSCLC of 52.9 µM.

For the compound `O=C(/C=C/c1cccs1)c1ccc(Nc2nc(Nc3ccc(F)cc3)nc(Nc3ccc(F)cc3)n2)cc1`, the GI50 is above 100 µM in the experiment on HOP-62 NSCLC; 18.2 µM in the experiment on SK-MEL-28 melanoma; 19.5 µM in the experiment on UO-31 renal; 16.7 µM with BT-549 breast; 15.2 µM in the experiment on T-47D breast; 24.2 µM in the experiment on NCI-H23 lung. In addition, the figures for the GI50 in the experiment on PC-3 prostate and in the experiment on EKVX NSCLC were 19 µM and 34.3 µM, respectively. The TGI in the experiment on HOP-62 NSCLC is above 100 µM; in the experiment on SK-MEL-28 melanoma, 39.1 µM; in the experiment with UO-31 renal, 79.7 µM; in the experiment with BT-549 breast, 32.4 µM; in the experiment with T-47D breast, 79.1 µM; in the experiment with NCI-H23 lung it was 71.2 µM. In addition, the TGI is 44.4 µM in the experiment with PC-3 prostate and above 100 µM with EKVX NSCLC.

Take `C=CC1=C[C@@H]2[C@@H]3O[C@]4(CC[C@H](O4)[C@@H](C)C[C@@H](O)C3=O)C[C@H](O)C3=NCC[C@@]32CC1`: the GI50 in the experiment with HOP-62 NSCLC, with SK-MEL-28 melanoma, in the experiment on UO-31 renal, in the experiment on BT-549 breast, in the experiment with T-47D breast and in the experiment on NCI-H23 lung was below 0.00333 µM each time. For the same compound, the GI50 in the experiment on PC-3 prostate and in the experiment on EKVX NSCLC was below 0.00333 µM in each case. The TGI in the experiment with HOP-62 NSCLC was 0.0075 µM; in the experiment with SK-MEL-28 melanoma, below 0.00333 µM; in the experiment on UO-31 renal, below 0.00333 µM; with BT-549 breast, below 0.00333 µM; with T-47D breast, 0.00634 µM; in the experiment with NCI-H23 lung, below 0.00333 µM. Besides, the TGI with PC-3 prostate stood at 0.0122 µM; in the experiment on EKVX NSCLC, 0.00345 µM.

Take `O=C1Nc2ccccc2C1Cc1ccc([N+](=O)[O-])cc1` (stereo not given): the TGI in the experiment with HOP-62 NSCLC, in the experiment on SK-MEL-28 melanoma, with UO-31 renal, in the experiment on BT-549 breast, in the experiment on T-47D breast and with NCI-H23 lung was above 100 µM throughout. Also, the TGI in the experiment on PC-3 prostate and in the experiment with EKVX NSCLC was above 100 µM each time.

Turning to `Cc1nc2cnc3cc(F)c(-c4ccc(Oc5ncccn5)cc4Cl)cc3c2n1[C@H]1CCN(C(=O)CO)C[C@@H]1F`, the GI50 in the experiment with HOP-62 NSCLC is 0.642 µM; in the experiment on SK-MEL-28 melanoma, 0.023 µM; with UO-31 renal, 1.78 µM; in the experiment on BT-549 breast, 7.51 µM; with T-47D breast, 36 µM; with NCI-H23 lung it was 0.32 µM. In addition, the GI50 in the experiment with PC-3 prostate was 28.9 µM; in the experiment with EKVX NSCLC, 3.23 µM. Further, the TGI is 49.3 µM in the experiment with HOP-62 NSCLC; 12.1 µM in the experiment on SK-MEL-28 melanoma; 24.4 µM in the experiment on UO-31 renal; 23.1 µM in the experiment with BT-549 breast; above 100 µM in the experiment on T-47D breast; 13.7 µM in the experiment with NCI-H23 lung. For the same compound, the TGI in the experiment with PC-3 prostate is above 100 µM; in the experiment with EKVX NSCLC it was above 95.5 µM.

On to `CN1CCN(c2nc(NCCCCNc3ccnc4cc(Cl)ccc34)c3ccccc3n2)CC1`, for which the GI50 was 5.15 µM with HOP-62 NSCLC; 1.85 µM with SK-MEL-28 melanoma; 1.65 µM with UO-31 renal; 3.45 µM in the experiment with BT-549 breast; 2.23 µM in the experiment on T-47D breast; 11.7 µM in the experiment on NCI-H23 lung. The GI50 in the experiment with PC-3 prostate was 4.44 µM; with EKVX NSCLC, 16.4 µM. For the same compound, the TGI in the experiment with HOP-62 NSCLC came to 20.2 µM; in the experiment on SK-MEL-28 melanoma, 3.57 µM; with UO-31 renal, 3.54 µM; with BT-549 breast it was 15 µM; in the experiment with T-47D breast it was 6.65 µM; in the experiment on NCI-H23 lung, 29.7 µM. The figures for the TGI with PC-3 prostate and in the experiment on EKVX NSCLC were 17.6 µM and 40.7 µM, respectively.

As for `CS(=O)(=O)c1ccc(-c2cnc(N)c(C(=O)Nc3ccccc3)n2)cc1`, the GI50 is 18.8 µM in the experiment with HOP-62 NSCLC; 98.6 µM in the experiment on SK-MEL-28 melanoma; 5.45 µM in the experiment on UO-31 renal; 7.87 µM with BT-549 breast; above 100 µM in the experiment with T-47D breast; 4.84 µM in the experiment on NCI-H23 lung. For the same compound, the GI50 in the experiment on PC-3 prostate is above 100 µM; in the experiment with EKVX NSCLC it was above 92.3 µM. In addition, the TGI with HOP-62 NSCLC was above 100 µM; with SK-MEL-28 melanoma it was above 100 µM; in the experiment on UO-31 renal, above 42.8 µM; with BT-549 breast, 40.8 µM; in the experiment on T-47D breast, above 100 µM; with NCI-H23 lung it was above 100 µM. The TGI with PC-3 prostate and with EKVX NSCLC was above 100 µM throughout.

As to `NC(=O)c1cc([N+](=O)[O-])c(Cl)c([N+](=O)[O-])c1`, the GI50 in the experiment on HOP-62 NSCLC was 5.49 µM; in the experiment on SK-MEL-28 melanoma, 2.05 µM; in the experiment on UO-31 renal, 1.77 µM; with BT-549 breast it was 2.52 µM; in the experiment with T-47D breast it was 2.32 µM; in the experiment on NCI-H23 lung, 2.78 µM. In addition, the values for the GI50 in the experiment on PC-3 prostate and in the experiment with EKVX NSCLC were 1.91 µM and 17.4 µM, respectively. For the same compound, the TGI came out at 17.8 µM with HOP-62 NSCLC; 4.34 µM in the experiment on SK-MEL-28 melanoma; 3.24 µM with UO-31 renal; 5.56 µM with BT-549 breast; 5.12 µM with T-47D breast; 8.32 µM in the experiment with NCI-H23 lung. Further, the results for the TGI in the experiment with PC-3 prostate and with EKVX NSCLC were 4.26 µM and 35.7 µM, respectively.
